# In US20220306695A1, “COMPSTATIN ANALOGUES AND THEIR MEDICAL USES” (priority 2019, published 2022):
# Starred links: 1 amine or outer side, 2 acyl side, 3 side chain; linkers in the order of their positions; H or OH if unused. Positions of bridges follow the written chain, without caps; N, C: chain ends. Non-standard residues stand in square brackets, D forms with d. Residues, ends and D or L forms follow the SMILES beside them. Groups on a side chain read outwards from the residue. *: point of attachment. C20 diacid = O=C(O)CCCCCCCCCCCCCCCCCCC(=O)*; Trp(1-Me) = Cn1cc(C[C@H](N)C(=O)O)c2ccccc21; Abu(4-yl) = O=C([C@H](CC[*:3])N[*:1])[*:2]; C18 diacid = O=C(O)CCCCCCCCCCCCCCCCC(=O)*; γGlu = O=C(O)[C@H](CCC(=O)[*:2])N[*:1]; NMeI = CC[C@H](C)[C@H](NC)C(=O)O; AEEA = NCCOCCOCC(=O)O; Sar = CNCC(=O)O
# What was measured:
# [1] = system: classical complement pathway; experiment: In vitro haemolysis assay (inhibition of classical complement pathway); type: cell-based, human; conditions: Table 3; human serum, sensitized sheep red blood cells; read-out: IC50[nM], in vitro analysis of inhibition of hemolysis
# Outline: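 Serially diluted compound (9 points) was preincubated 15 min at room temperature with diluted human serum, titrated per batch to give 70-90% maximal haemolysis, in Tris/casein buffer pH 7.4 with Mg2+/Ca2+. Antibody-sensitized sheep erythrocytes were then added for 30 min at 37° C, and the reaction was stopped with EDTA. Haemolysis was read at A405, with IC50 from 4PL fit.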
# Human C3 = biological target: T1, Human C3 (Homo sapiens, UniProt P01024); experiment: Affinity measurement by surface plasmon resonance (SPR) with immobilized C3; type: binding; conditions: Table 7; immobilized C3, 25° C., pH 7.4
# T1 construct: purchased Complement tech A1 13c (so in the source)
# Procedure: Surface plasmon resonance (SPR) was used to characterize peptides with respect to their binding affinity (Kd) for C3. Human C3 (Complement tech cat #A1 13c) was immobilised on individual flow cells of CM5 sensor chips (GE Healthcare) using standard amine coupling to a density of approximately 3000 resonance units (RU) in a buffer consisting of 10 mM phosphate pH 7.4, 150 mM NaCl, 0.05% Tween20. For interaction experiments a multi-cycle experiment approach was used and performed using either a Biacore™ T200 or Biacore™ X100 instrument (GE Healthcare) at 25° C. Peptides were injected in increasing concentration series (5-8 different concentrations) for 60-120 s at a flow rate of 30 μL/min in a buffer consisting of 10 mM Tris buffer at pH 7.4, with 150 mM NaCl and 0.05% Tween20. This was followed by a dissociation period for up to 10 min. […] Sensorgrams were double-referenced (reference surface, blanks) prior to analysis of the kinetic profiles by globally fitting data to a 1:1 Langmuir binding model to obtain association and dissociation rates for calculation of the equilibrium dissociation constant Kd. Each peptide was tested at in at least 2 independent experiments.
Compound,Kd (Human C3),IC50 [1]
"CC[C@H](C)[C@H](NC(=O)[C@H](N)Cc1ccc(O)cc1)C(=O)N[C@H]1CSSC[C@@H](C(=O)N(C)[C@H](C(N)=O)[C@@H](C)CC)NC(=O)[C@H](CCCNC(=N)N)NC(=O)[C@H](Cc2c[nH]cn2)NC(=O)[C@H](C)NC(=O)CN(C)C(=O)[C@H](Cc2c[nH]c3ccccc23)NC(=O)[C@H](CC(=O)O)NC(=O)[C@H](CCC(N)=O)NC(=O)[C@H](Cc2cn(C)c3ccccc23)NC(=O)[C@H]([C@@H](C)CC)NC1=O [Compound 48, H-{d}Y1C(1)I[1-Me-Trp]QDW[Sar]AHRC(1)[N-Me-Ile]-NH2] (H-[dY]ICI[Trp(1-Me)]QDW[Sar]AHRC[NMeI]-NH2; disulfide 3-13)",0.12 nM,< 100 nM
CC[C@H](C)[C@@H]1NC(=O)[C@@H](NC(=O)[C@H](Cc2ccccc2)NC(=O)[C@H](CCC(=O)O)NC(=O)[C@H](CO)NC(C)=O)CSSC[C@@H](C(=O)N(C)CC(=O)N[C@@H](CCC(=O)O)C(=O)N[C@@H](C)C(N)=O)NC(=O)[C@H](CCCNC(=N)N)NC(=O)[C@H](Cc2c[nH]cn2)NC(=O)[C@H](CCC(=O)O)NC(=O)CNC(=O)[C@H](Cc2c[nH]c3ccccc23)NC(=O)[C@H](CC(=O)O)NC(=O)[C@H](CCC(N)=O)NC(=O)[C@H](Cc2cn(C)c3ccccc23)NC1=O [Compound 75] (Ac-SEFCI[Trp(1-Me)]QDWGEHRC[Sar]EA-NH2; disulfide 4-14),1.5 nM,< 100 nM
CC[C@H](C)[C@@H]1NC(=O)[C@@H](NC(=O)CN(C)C(=O)[C@H](CCC(=O)O)NC(=O)[C@H](CO)NC(C)=O)CSSC[C@@H](C(=O)N[C@H](C(=O)N[C@@H](CCC(=O)O)C(=O)N[C@@H](C)C(N)=O)[C@@H](C)O)NC(=O)[C@H](CCCNC(=N)N)NC(=O)[C@H](Cc2c[nH]cn2)NC(=O)[C@H](CCC(=O)O)NC(=O)CNC(=O)[C@H](Cc2c[nH]c3ccccc23)NC(=O)[C@H](CC(=O)O)NC(=O)[C@H](CCC(N)=O)NC(=O)[C@H](Cc2cn(C)c3ccccc23)NC1=O [Compound 82] (Ac-SE[Sar]CI[Trp(1-Me)]QDWGEHRCTEA-NH2; disulfide 4-14),5.4 nM,< 100 nM
CC[C@H](C)[C@@H]1NC(=O)[C@@H](NC(=O)[C@H](Cc2ccccc2)NC(=O)[C@H](CCC(=O)O)NC(=O)[C@H](CO)NC(C)=O)CSSC[C@@H](C(=O)N(C)CC(=O)N[C@@H](CCC(=O)O)C(=O)NCC(=O)N[C@@H](C)C(=O)N[C@@H](CCCCNC(=O)COCCOCCNC(=O)CC[C@H](NC(=O)COCCOCCNC(=O)CNC(=O)CC[C@H](NC(=O)CCCCCCCCCCCCCCCCC(=O)O)C(=O)O)C(=O)O)C(N)=O)NC(=O)[C@H](CCCNC(=N)N)NC(=O)[C@H](Cc2c[nH]cn2)NC(=O)[C@H](CCC(=O)O)NC(=O)CNC(=O)[C@H](Cc2c[nH]c3ccccc23)NC(=O)[C@H](CCC(=O)O)NC(=O)[C@H](CCC(N)=O)NC(=O)[C@H](Cc2cn(C)c3ccccc23)NC1=O [Compound 120] (Ac-SEFCI[Trp(1-Me)]QEWGEHRC[Sar]EGAK([AEEA-γGlu-AEEA-Gly-γGlu-C18 diacid])-NH2; disulfide 4-14),28 nM,< 250 nM
"CC[C@H](C)[C@@H]1NC(=O)[C@@H](NC(=O)[C@H](Cc2ccc(O)cc2)NC(=O)[C@H](CCC(=O)O)NC(=O)[C@H](CO)NC(C)=O)CSSC[C@@H](C(=O)N(C)CC(=O)N[C@@H](CCC(=O)O)C(=O)N[C@@H](CCCCN)C(=O)N[C@@H](CCC(=O)N[C@@H](C)C(=O)N[C@@H](CCCCNC(=O)COCCOCCNC(=O)CC[C@H](NC(=O)COCCOCCNC(=O)CNC(=O)CC[C@H](NC(=O)CCCCCCCCCCCCCCCCC(=O)O)C(=O)O)C(=O)O)C(N)=O)C(=O)O)NC(=O)[C@H](CCCNC(=N)N)NC(=O)[C@H](Cc2c[nH]cn2)NC(=O)[C@H](CCC(=O)O)NC(=O)CN(C)C(=O)[C@H](Cc2c[nH]c3ccccc23)NC(=O)[C@H](CCC(=O)O)NC(=O)[C@H](CCC(N)=O)NC(=O)[C@H](Cc2cn(C)c3ccccc23)NC1=O [Compound 121, Ac-SEYC(1)I[1-Me-Trp]QEW[Sar]EHRC(1)[Sar]K[γGlu]A-K([17-carboxy-heptadecanoyl][γGlu]G[Peg3][γGlu][Peg3])-NH2] (Ac-SEYCI[Trp(1-Me)]QEW[Sar]EHRC[Sar]EK[γGlu]AK([AEEA-γGlu-AEEA-Gly-γGlu-C18 diacid])-NH2; disulfide 4-14)",30 nM,< 250 nM
CC[C@H](C)[C@@H]1NC(=O)[C@@H](NC(=O)[C@H](Cc2ccccc2)NC(=O)[C@H](CCC(=O)O)NC(=O)[C@H](CO)NC(C)=O)CSSC[C@@H](C(=O)N(C)CC(=O)N[C@@H](CCC(=O)O)C(=O)NCC(=O)N[C@@H](CCC(=O)O)C(=O)NCCOCCOCC(=O)NCCOCCOCC(=O)N[C@@H](CCCCNC(=O)CC[C@H](NC(=O)CNC(=O)CC[C@H](NC(=O)CCCCCCCCCCCCCCCCCCC(=O)O)C(=O)O)C(=O)O)C(N)=O)NC(=O)[C@H](CCCNC(=N)N)NC(=O)[C@H](Cc2c[nH]cn2)NC(=O)[C@H](CCC(=O)O)NC(=O)CNC(=O)[C@H](Cc2c[nH]c3ccccc23)NC(=O)[C@H](CC(=O)O)NC(=O)[C@H](CCC(N)=O)NC(=O)[C@H](Cc2cn(C)c3ccccc23)NC1=O [Compound 128] (Ac-SEFCI[Trp(1-Me)]QDWGEHRC[Sar]EGE[AEEA][AEEA]K([γGlu-Gly-γGlu-C20 diacid])-NH2; disulfide 4-14),6.5 nM,< 100 nM

# Further lines, with some results ahead:
Kd (Human C3),Compound,IC50 [1]
1.5 nM,"CC[C@H](C)[C@@H]1NC(=O)[C@@H](NC(=O)[C@H](Cc2ccccc2)NC(=O)[C@H](CCC(=O)O)NC(=O)[C@H](CO)NC(C)=O)CSSC[C@@H](C(=O)N(C)CC(=O)N[C@@H](CCC(=O)O)C(=O)NCCOCCOCC(=O)NCCOCCOCC(=O)N[C@@H](CCCCNC(=O)CC[C@H](NC(=O)CNC(=O)CC[C@H](NC(=O)CCCCCCCCCCCCCCCCC(=O)O)C(=O)O)C(=O)O)C(N)=O)NC(=O)[C@H](CCCNC(=N)N)NC(=O)[C@H](Cc2c[nH]cn2)NC(=O)[C@H](CCC(=O)O)NC(=O)CN(C)C(=O)[C@H](Cc2c[nH]c3ccccc23)NC(=O)[C@H](CC(=O)O)NC(=O)[C@H](CCC(N)=O)NC(=O)[C@H](Cc2cn(C)c3ccccc23)NC1=O [Compound 144, Ac-SEFC(1)I[1-Me-Trp]QDW[Sar]EHRC(1)[Sar]E[Peg3][Peg3]-K([17-carboxy-heptadecanoyl][γGlu]G[γGlu])-NH2] (Ac-SEFCI[Trp(1-Me)]QDW[Sar]EHRC[Sar]E[AEEA][AEEA]K([γGlu-Gly-γGlu-C18 diacid])-NH2; disulfide 4-14)",< 100 nM
1.4 nM,"CC[C@H](C)[C@@H]1NC(=O)[C@@H](NC(=O)[C@H](Cc2ccccc2)NC(=O)[C@H](CCC(=O)O)NC(=O)[C@H](CO)NC(C)=O)CSCC[C@@H](C(=O)N[C@H](C(=O)NCC(=O)N[C@@H](C)C(=O)N[C@@H](CCC(=O)O)C(=O)N[C@@H](CO)C(N)=O)[C@@H](C)O)NC(=O)[C@H](CCCNC(=N)N)NC(=O)[C@H](Cc2c[nH]cn2)NC(=O)[C@H](CCC(=O)O)NC(=O)CNC(=O)[C@H](Cc2c[nH]c3ccccc23)NC(=O)[C@H](CC(=O)O)NC(=O)[C@H](CCC(N)=O)NC(=O)[C@H](Cc2cn(C)c3ccccc23)NC1=O [Compound 151, Ac-SEFA(1)I[1-Me-Trp]QDWGEHRhC(1)TGAES-NH2] (Ac-SEFCI[Trp(1-Me)]QDWGEHR[Abu(4-yl)]TGAES-NH2; thioether 4-14)",< 100 nM
16 nM,CC[C@H](C)[C@@H]1NC(=O)[C@@H](NC(=O)[C@H](Cc2ccccc2)NC(=O)[C@H](CCC(=O)O)NC(=O)[C@H](CO)NC(C)=O)CCSC[C@@H](C(=O)N(C)CC(=O)N[C@@H](CCC(=O)O)C(=O)NCC(=O)N[C@@H](CCC(=O)O)C(=O)NCCOCCOCC(=O)NCCOCCOCC(=O)N[C@@H](CCCCNC(=O)CC[C@H](NC(=O)CNC(=O)CC[C@H](NC(=O)CCCCCCCCCCCCCCCCC(=O)O)C(=O)O)C(=O)O)C(N)=O)NC(=O)[C@H](CCCNC(=N)N)NC(=O)[C@H](Cc2c[nH]cn2)NC(=O)[C@H](CCC(=O)O)NC(=O)CNC(=O)[C@H](Cc2c[nH]c3ccccc23)NC(=O)[C@H](CC(=O)O)NC(=O)[C@H](CCC(N)=O)NC(=O)[C@H](Cc2cn(C)c3ccccc23)NC1=O [Compound 152] (Ac-SEF[Abu(4-yl)]I[Trp(1-Me)]QDWGEHRC[Sar]EGE[AEEA][AEEA]K([γGlu-Gly-γGlu-C18 diacid])-NH2; thioether 4-14),< 100 nM
3.4 nM,"CC[C@H](C)[C@@H]1NC(=O)[C@@H](NC(=O)[C@H](Cc2ccccc2)NC(=O)[C@H](CCC(=O)O)NC(C)=O)CSCC[C@@H](C(=O)N[C@@H](CCC(=O)O)C(=O)NCC(=O)N[C@@H](CCC(=O)O)C(=O)N[C@@H](CCCCNC(=O)CC[C@H](NC(=O)CNC(=O)CC[C@H](NC(=O)CCCCCCCCCCCCCCCCC(=O)O)C(=O)O)C(=O)O)C(N)=O)NC(=O)[C@H](CCCNC(=N)N)NC(=O)[C@H](Cc2c[nH]cn2)NC(=O)[C@H](CCC(=O)O)NC(=O)CNC(=O)[C@H](Cc2c[nH]c3ccccc23)NC(=O)[C@H](CC(=O)O)NC(=O)[C@H](CCC(N)=O)NC(=O)[C@H](Cc2cn(C)c3ccccc23)NC1=O [Compound 161, Ac-EFA(1)I[1-Me-Trp]QDWGEHRhC(1)EGE-K([17-carboxy-heptadecanoyl][γGlu]G[γGlu])-NH2] (Ac-EFCI[Trp(1-Me)]QDWGEHR[Abu(4-yl)]EGEK([γGlu-Gly-γGlu-C18 diacid])-NH2; thioether 3-13)",< 100 nM
